Experimental data taken from patent US8008298B2, “Pyrrolopyrazine kinase inhibitors” (Roche Palo Alto, priority 2008, dated 2011).

| SMILES | melting point [°C] |
| --- | --- |
| CCOC(C)(OCC)C(=O)c1c[nH]c2ncc(-c3cc(OC)c(OC)c(OC)c3)nc12 [Example 72, 2,2-Diethoxy-1-[2-(3,4,5-trimethoxy-phenyl)-5H-pyrrolo[2,3-b]pyrazin-7-yl]-propan-1-one] | 198.2 to 201 |
| COc1cc(-c2cnc3[nH]cc(C(=O)C(=O)N(C)C)c3n2)cc(OC)c1OC [Example 74, N,N-Dimethyl-2-oxo-2-[2-(3,4,5-trimethoxy-phenyl)-5H-pyrrolo[2,3-b]pyrazin-7-yl]-acetamide] | 227 to 228 |
| CC(C)(C)C(=O)c1c[nH]c2ncc(-c3cccc(N4CCN(C(=O)CC#N)CC4)c3)nc12 [Example 90, 3-(4-{3-[7-(2,2-Dimethyl-propionyl)-5H-pyrrolo[2,3-b]pyrazin-2-yl]-phenyl}-piperazin-1-yl)-3-oxo-propionitrile] | 240 to 242 |
| CC(C)(C)C(=O)c1c[nH]c2ncc(-c3cc(N4CCCC4)cc(N4CCCC4)c3)nc12 [Example 97, 1-[2-(3,5-Di-pyrrolidin-1-yl-phenyl)-5H-pyrrolo[2,3-b]pyrazin-7-yl]-2,2-dimethyl-propan-1-one] | 291 to 303 |
| COc1ccc(-c2cnc3[nH]cc(C(=O)C(C)(C)C)c3n2)cc1 [Example 98, 1-[2-(4-Methoxy-phenyl)-5H-pyrrolo[2,3-b]pyrazin-7-yl]-2,2-dimethyl-propan-1-one] | 207 to 208 |
| COc1ccc(-c2cnc3[nH]cc(C(=O)C(C)(C)C)c3n2)cc1N1CCCC1 [Example 101, 1-[2-(4-Methoxy-3-pyrrolidin-1-yl-phenyl)-5H-pyrrolo[2,3-b]pyrazin-7-yl]-2,2-dimethyl-propan-1-one] | 211 to 213 |
| C[S+]([O-])c1ccc(-c2cnc3[nH]cc(C(=O)C(C)(C)C)c3n2)cc1N1CCCC1 (stereo not drawn) [Example 107, 1-[2-(4-Methanesulfinyl-3-pyrrolidin-1-yl-phenyl)-5H-pyrrolo[2,3-b]pyrazin-7-yl]-2,2-dimethyl-propan-1-one] | 150 to 152 |
| CC(C)(C)C(=O)c1c[nH]c2ncc(-c3cccc(N4CCC(S(C)(=O)=O)C4)c3)nc12 (stereo not drawn) [Example 109, 1-{2-[3-(3-Methanesulfonyl-pyrrolidin-1-yl)-phenyl]-5H-pyrrolo[2,3-b]pyrazin-7-yl}-2,2-dimethyl-propan-1-one] | 223 to 225 |
| COc1cc(-c2cnc3[nH]cc(C(=O)CCC(C)OC)c3n2)cc(OC)c1OC (stereo not drawn) [Example 129, 4-Methoxy-1-[2-(3,4,5-trimethoxy-phenyl)-5H-pyrrolo[2,3-b]pyrazin-7-yl]-pentan-1-one] | 150 to 151 |
| COc1cc(-c2cnc3[nH]cc(C(=O)C(C)(C)OC)c3n2)cc(OC)c1OC [Example 131, 2-Methoxy-2-methyl-1-[2-(3,4,5-trimethoxy-phenyl)-5H-pyrrolo[2,3-b]pyrazin-7-yl]-propan-1-one] | 237.8 to 239.1 |
| CCOc1cccc(-c2cnc3[nH]cc(C(=O)C(C)(C)C)c3n2)c1 [Example 136, 1-[2-(3-Ethoxy-phenyl)-5H-pyrrolo[2,3-b]pyrazin-7-yl]-2,2-dimethyl-propan-1-one] | 195 to 196 |
| CC(C)COc1cccc(-c2cnc3[nH]cc(C(=O)C(C)(C)C)c3n2)c1 [Example 137, 1-[2-(3-Isobutoxy-phenyl)-5H-pyrrolo[2,3-b]pyrazin-7-yl]-2,2-dimethyl-propan-1-one] | 177 to 178 |
| CC(C)Oc1cccc(-c2cnc3[nH]cc(C(=O)C(C)(C)C)c3n2)c1 [Example 138, 1-[2-(3-Isopropoxy-phenyl)-5H-pyrrolo[2,3-b]pyrazin-7-yl]-2,2-dimethyl-propan-1-one] | 149 to 150 |
| CNS(=O)(=O)c1cccc(-c2cnc3[nH]cc(C(=O)C(C)(C)C)c3n2)c1 [Example 141, 3-[7-(2,2-Dimethyl-propionyl)-5H-pyrrolo[2,3-b]pyrazin-2-yl]-N-methyl-benzenesulfonamide] | 245 to 247 |
| CNS(=O)(=O)c1ccc(-c2cnc3[nH]cc(C(=O)C(C)(C)C)c3n2)cc1 [Example 142, 4-[7-(2,2-Dimethyl-propionyl)-5H-pyrrolo[2,3-b]pyrazin-2-yl]-N-methyl-benzenesulfonamide] | 278 to 280 |
| CC(C)(C)C(=O)c1c[nH]c2ncc(-c3cccc(CCCO)c3)nc12 [Example 143, 1-{2-[3-(3-Hydroxy-propyl)-phenyl]-5H-pyrrolo[2,3-b]pyrazin-7-yl}-2,2-dimethyl-propan-1-one] | 170 to 171 |
| CC(C)(C)C(=O)c1c[nH]c2ncc(-c3cccc(S(N)(=O)=O)c3)nc12 [Example 144, 3-[7-(2,2-Dimethyl-propionyl)-5H-pyrrolo[2,3-b]pyrazin-2-yl]-benzenesulfonamide] | 275 to 277 |
| COc1cc(OC)cc(-c2cnc3[nH]cc(C(=O)C(C)(C)C)c3n2)c1 [Example 146, 1-[2-(3,5-Dimethoxy-phenyl)-5H-pyrrolo[2,3-b]pyrazin-7-yl]-2,2-dimethyl-propan-1-one] | 206.9 to 207.7 |
| CC(C)(C)C(=O)c1c[nH]c2ncc(-c3cccc(CN)c3)nc12 [Example 149, 1-[2-(3-Aminomethyl-phenyl)-5H-pyrrolo[2,3-b]pyrazin-7-yl]-2,2-dimethyl-propan-1-one] | 176 to 178 |

The remaining lines, values ahead:

| melting point [°C] | SMILES |
| --- | --- |
| 196 to 198 | COC1CN(c2cccc(-c3cnc4[nH]cc(C(=O)C(C)(C)C)c4n3)c2)C1 [Example 111, 1-{2-[3-(3-Methoxy-azetidin-1-yl)-phenyl]-5H-pyrrolo[2,3-b]pyrazin-7-yl}-2,2-dimethyl-propan-1-one] |
| 229 to 230 | COCC(=O)c1c[nH]c2ncc(-c3cc(OC)c(OC)c(OC)c3)nc12 [Example 132, 2-Methoxy-1-[2-(3,4,5-trimethoxy-phenyl)-5H-pyrrolo[2,3-b]pyrazin-7-yl]-ethanone] |
| 179 to 180 | CCCOc1cccc(-c2cnc3[nH]cc(C(=O)C(C)(C)C)c3n2)c1 [Example 139, 2,2-Dimethyl-1-[2-(3-propoxy-phenyl)-5H-pyrrolo[2,3-b]pyrazin-7-yl]-propan-1-one] |
| 277 to 278 | CC(C)(C)C(=O)c1c[nH]c2ncc(-c3ccc(S(N)(=O)=O)cc3)nc12 [Example 140, 4-[7-(2,2-Dimethyl-propionyl)-5H-pyrrolo[2,3-b]pyrazin-2-yl]-benzenesulfonamide] |
| 244 to 246 | COc1cc(-c2cnc3[nH]cc(C(=O)C4(C)CCCC4)c3n2)cc(OC)c1OC [Example 147, (1-Methyl-cyclopentyl)-[2-(3,4,5-trimethoxy-phenyl)-5H-pyrrolo[2,3-b]pyrazin-7-yl]-methanone] |
| 202 to 203 | CC(C)(C)C(=O)c1c[nH]c2ncc(-c3cccc(CCO)c3)nc12 [Example 148, 1-{2-[3-(2-Hydroxy-ethyl)-phenyl]-5H-pyrrolo[2,3-b]pyrazin-7-yl}-2,2-dimethyl-propan-1-one] |
| 176 to 177 | CC(C)(C)C(=O)c1c[nH]c2ncc(-c3cccc(CN4CCCCC4)c3)nc12 [Example 150, 2,2-Dimethyl-1-[2-(3-piperidin-1-ylmethyl-phenyl)-5H-pyrrolo[2,3-b]pyrazin-7-yl]-propan-1-one] |
| 282 to 283 | CC(C)(C)C(=O)c1c[nH]c2ncc(-c3ccccc3O)nc12 [Example 152, 1-[2-(2-Hydroxy-phenyl)-5H-pyrrolo[2,3-b]pyrazin-7-yl]-2,2-dimethyl-propan-1-one] |
